Test results published in patent US6407103B2, “Indeno [1,2-c] pyrazol-4-ones and their uses” (Bristol-Myers Squibb Pharma Company, priority 1998, dated 2002).
Structures can show the parent of a compound that is named as a salt.

Structure (SMILES) | melting point [°C]
CCN(CC)CC1CCCCN1C(=O)c1ccc(-c2[nH]nc3c2C(=O)c2c(NC(=O)NN4CCOCC4)cccc2-3)s1 (centres unmarked) (as salt: TFA) [Example CLXXIII, 3-(5-(2-(N,N-diethylaminomethyl)piperidinocarbonyl)-2-thienyl)-5-(morpholinocarbamoylamino)indeno[1,2-c]pyrazol-4-one] | 210
CN(C(=O)OC(C)(C)C)[C@H]1CCN(C(=O)c2ccc(-c3[nH]nc4c3C(=O)c3c(NC(=O)NN5CCOCC5)cccc3-4)s2)C1 (as salt: TFA) [Example CLXXIX, 3-(5-(3(S)-(N-methyl-t-butoxycarbonylamino)pyrrolidinocarbonyl)-2-thienyl)-5-(morpholinocarbamoylamino)indeno[1,2-c]pyrazol-4-one] | > 300
CC(=O)N[C@H]1CCN(C(=O)c2ccc(-c3[nH]nc4c3C(=O)c3c(NC(=O)NN5CCOCC5)cccc3-4)s2)C1 (as salt: TFA) [Example CLXXVII, 3-(5-(3(S)-acetamidopyrrolidinocarbonyl)-2-thienyl)-5-(morpholinocarbamoylamino)indeno[1,2-c]pyrazol-4-one] | 264
CC(=O)N(C)[C@H]1CCN(C(=O)c2ccc(-c3[nH]nc4c3C(=O)c3c(NC(=O)NN5CCOCC5)cccc3-4)s2)C1 (as salt: TFA) [Example CLXXVIII, 3-(5-(3(S)-(N-methylacetamido)pyrrolidinocarbonyl)-2-thienyl)-5-(morpholinocarbamoylamino)indeno[1,2-c]pyrazol-4-one] | > 300
CN1CCC(CNC(=O)c2ccc(-c3[nH]nc4c3C(=O)c3c(NC(=O)NN5CCOCC5)cccc3-4)s2)C1 (centres unmarked) (as salt: TFA) [Example CLXXXIII, 3-(5-((1-methylpyrrolidin-3-yl)methylaminocarbonyl)-2-thienyl)-5-(morpholinocarbamoylamino)indeno[1,2-c]pyrazol-4-one] | 151
O=C(Nc1cccc2c1C(=O)c1c-2n[nH]c1-c1ccc(C(=O)N2CCC[C@@H]2CN2CCCC2)s1)NN1CCOCC1 (as salt: TFA) [Example CLXXXIV, 3-(5-(2(R)-(pyrrolidinomethyl)pyrrolidinocarbonyl)-2-thienyl)-5-(morpholinocarbamoylamino)indeno[1,2-c]pyrazol-4-one] | 166
O=C(Nc1cccc2c1C(=O)c1c-2n[nH]c1-c1ccc(C(=O)N2CCC[C@H]2CO)s1)NN1CCOCC1 (as salt: TFA) [Example CLXXXV, 3-(5-(2(S)-(hydroxymethyl)pyrrolidinocarbonyl)-2-thienyl)-5-(morpholinocarbamoylamino)indeno[1,2-c]pyrazol-4-one] | 267
O=C(Nc1cccc2c1C(=O)c1c-2n[nH]c1-c1ccc(C(=O)N2CCC[C@H]2CNc2ccccc2)s1)NN1CCOCC1 (as salt: TFA) [Example CLXXXVII, 3-(5-(2(S)-(phenylaminomethyl)pyrrolidinocarbonyl)-2-thienyl)-5-(morpholinocarbamoylamino)indeno[1,2-c]pyrazol-4-one] | > 300
CC(=O)Nc1ccc(NC(=O)c2ccc(-c3[nH]nc4c3C(=O)c3c(NC(=O)NN5CCOCC5)cccc3-4)s2)cc1 (as salt: TFA) [Example CXCVII, 3-(5-((4-acetamidophenyl)aminocarbonyl)-2-thienyl)-5-(morpholinocarbamoylamino)indeno[1,2-c]pyrazol-4-one] | 253
CCN(CC)c1ccc(NC(=O)c2ccc(-c3[nH]nc4c3C(=O)c3c(NC(=O)NN5CCOCC5)cccc3-4)s2)cc1 (as salt: TFA) [Example CXCVIII, 3-(5-(4-(diethylamino)phenylaminocarbonyl)-2-thienyl)-5-(morpholinocarbamoylamino)indeno[1,2-c]pyrazol-4-one] | 198
O=C(Nc1cccc2c1C(=O)c1c-2n[nH]c1-c1ccc(C(=O)N2CCNCC2)s1)NN1CCOCC1 (as salt: TFA) [Example CXLIX, 3-(5-piperazinocarbonyl-2-thienyl)-5-(morpholinocarbamoylamino)indeno [1,2-c]pyrazol-4-one] | 241
O=C(Nc1cccc2c1C(=O)c1c-2n[nH]c1-c1ccc(C(=O)NN2CCCC2)s1)NN1CCOCC1 (as salt: TFA) [Example CXLVI, 3-(5-pyrrolidinoaminocarbonyl-2-thienyl)-5-(morpholinocarbamoylamino)indeno [1,2-c]pyrazol-4-one] | 213
O=C(Nc1cccc2c1C(=O)c1c-2n[nH]c1-c1ccc(C(=O)NN2CCCCC2)s1)NN1CCOCC1 (as salt: TFA) [Example CXLVII, 3-(5-piperidinoaminocarbonyl-2-thienyl)-5-(morpholinocarbamoylamino)indeno [1,2-c]pyrazol-4-one] | 189
CC(C)(C)OC(=O)NCCCC(=O)N1CCC(c2[nH]nc3c2C(=O)c2c(NC(=O)NN4CCOCC4)cccc2-3)CC1 [Example CCLXXVI, 3-(1-(3-(t-butoxycarbonylamino)propylcarbonyl)piperidin-4-yl)-5-(morpholinocarbamoylamino)indeno[1,2-c]pyrazol-4-one] | 73
CC(C)(C)OC(=O)N1CCC(C(=O)N2CCC(c3[nH]nc4c3C(=O)c3c(NC(=O)NN5CCOCC5)cccc3-4)CC2)CC1 [Example CCLXXXI, 3-(1-((1-(t-butoxycarbonyl)piperidin-4-yl)carbonyl)piperidin-4-yl)-5-(morpholinocarbamoylamino)indeno[1,2-c]pyrazol-4-one] | 220

Continued, values first:

melting point [°C] | Structure (SMILES)
> 300 | CN(C)CC1CCCCN1C(=O)c1ccc(-c2[nH]nc3c2C(=O)c2c(NC(=O)NN4CCOCC4)cccc2-3)s1 (centres unmarked) (as salt: TFA) [Example CLXXII, 3-(5-(2-(N,N-dimethylaminomethyl)piperidinocarbonyl)-2-thienyl)-5-(morpholinocarbamoylamino)indeno[1,2-c]pyrazol-4-one]
> 300 | O=C(Nc1cccc2c1C(=O)c1c-2n[nH]c1-c1ccc(C(=O)N2CCCC2)s1)NN1CCOCC1 (as salt: TFA) [Example CLXXIV, 3-(5-pyrrolidinocarbonyl-2-thienyl)-5-(morpholinocarbamoylamino)indeno[1,2-c]pyrazol-4-one]
201 | NC1CCN(C(=O)c2ccc(-c3[nH]nc4c3C(=O)c3c(NC(=O)NN5CCOCC5)cccc3-4)s2)C1 (centres unmarked) (as salt: TFA) [Example CLXXV, 3-(5-(3-aminopyrrolidinocarbonyl)-2-thienyl)-5-(morpholinocarbamoylamino)indeno[1,2-c]pyrazol-4-one]
216 | CN(C)C1CCN(C(=O)c2ccc(-c3[nH]nc4c3C(=O)c3c(NC(=O)NN5CCOCC5)cccc3-4)s2)C1 (centres unmarked) (as salt: TFA) [Example CLXXX, 3-(5-(3-(N,N-dimethylamino)pyrrolidinocarbonyl)-2-thienyl)-5-(morpholinocarbamoylamino)indeno[1,2-c]pyrazol-4-one]
265 | CN(C)[C@@H]1CCN(C(=O)c2ccc(-c3[nH]nc4c3C(=O)c3c(NC(=O)NN5CCOCC5)cccc3-4)s2)C1 (as salt: TFA) [Example CLXXXI, 3-(5-(3(R)-(N,N-dimethylamino)pyrrolidinocarbonyl)-2-thienyl)-5-(morpholinocarbamoylamino)indeno[1,2-c]pyrazol-4-one]
264 | CN(C)[C@H]1CCN(C(=O)c2ccc(-c3[nH]nc4c3C(=O)c3c(NC(=O)NN5CCOCC5)cccc3-4)s2)C1 (as salt: TFA) [Example CLXXXII, 3-(5-(3(S)-(N,N-dimethylamino)pyrrolidinocarbonyl)-2-thienyl)-5-(morpholinocarbamoylamino)indeno[1,2-c]pyrazol-4-one]
262 | COC[C@H]1CCCN1C(=O)c1ccc(-c2[nH]nc3c2C(=O)c2c(NC(=O)NN4CCOCC4)cccc2-3)s1 (as salt: TFA) [Example CLXXXVI, 3-(5-(2(R)-(methoxymethyl)pyrrolidinocarbonyl)-2-thienyl)-5-(morpholinocarbamoylamino)indeno[1,2-c]pyrazol-4-one]
266 | COC[C@H]1CCCN1NC(=O)c1ccc(-c2[nH]nc3c2C(=O)c2c(NC(=O)NN4CCOCC4)cccc2-3)s1 (as salt: TFA) [Example CLXXXVIII, 3-(5-(2(R)-(methoxymethyl)pyrrolidinoaminocarbonyl)-2-thienyl)-5-(morpholinocarbamoylamino)indeno[1,2-c]pyrazol-4-one]
230 | CNc1ccc(NC(=O)c2ccc(-c3[nH]nc4c3C(=O)c3c(NC(=O)NN5CCOCC5)cccc3-4)s2)cc1 (as salt: TFA) [Example CXCVI, 3-(5-((4-methylaminophenyl)aminocarbonyl)-2-thienyl)-5-(morpholinocarbamoylamino)indeno[1,2-c]pyrazol-4-one]
297 | COc1ccc(-c2[nH]nc3c2C(=O)c2c(NC(=O)Cc4ccc5c(c4)OCO5)cccc2-3)cc1 (hydrate or solvate) [Example XVII, 3-(4-methoxyphenyl)-5-((3,4-methylenedioxyphenyl)acetamido)indeno[1,2-c]pyrazol-4-one]
> 300 | COc1ccc(-c2[nH]nc3c2C(=O)c2c(NC(=O)N[C@@H]4CCCC[C@@H]4N)cccc2-3)cc1 (relative stereo) [Example LXVII, 3-(4-methoxyphenyl)-5-((cis-2-aminocyclohexylcarbamoyl)amino)indeno[1,2-c]pyrazol-4-one]
> 280 | NC(=O)Nc1cccc2c1C(=O)c1c-2n[nH]c1-c1ccsc1 [Example C, 3-(3-thienyl)-5-(carbamoylamino)indeno[1,2-c]pyrazol-4-one]
301 | Cn1ccc(-c2[nH]nc3c2C(=O)c2c(NC(=O)NN4CCOCC4)cccc2-3)c1 [Example CC, 3-(1-methyl-3-pyrrolyl)-5-(morpholinocarbamoylamino)indeno[1,2-c]pyrazol-4-one]
221 | CCOC(=O)c1ccc(-c2[nH]nc3c2C(=O)c2c(NC(=O)NN4CCC[C@@H]4COC)cccc2-3)s1 [Example CCI, 3-(5-carboethoxy-2-thienyl)-5-(2 (R)-(methoxymethyl)pyrrolidinocarbamoylamino)indeno[1,2-c]pyrazol-4-one]
